Experimental data published in ChEMBL document CHEMBL3526086, “Identification of the oxidative and conjugative enzymes involved in the biotransformation of brivanib” (Drug Metab Dispos, 2012).

Legend:
[1] = tested on: Liver microsome; assay: Drug metabolism in human liver microsomes assessed as (R)-4-fluoro-5-(6-(2-hydroxypropoxy)-5-methylpyrrolo[1,2-f][1,2,4]triazin-4-yloxy)-1H-indole-2-carboxylic acid formation at 2 uM for 60 mins by LC/MS analysis; assay type: ADME
[2] = tested on: Liver microsome; assay: Drug metabolism in human liver microsomes assessed as (R)-4-fluoro-5-(6-(2-hydroxypropoxy)-5-methylpyrrolo[1,2-f][1,2,4]triazin-4-yloxy)-1H-indole-2-carboxylic acid formation at 2 uM for 60 mins by LC/MS analysis in presence of NADPH; assay type: ADME
[3] = tested on: Liver cytosol; assay: Drug metabolism in human liver cytosol assessed as (R)-4-fluoro-5-(6-(2-hydroxypropoxy)-5-methylpyrrolo[1,2-f][1,2,4]triazin-4-yloxy)-1H-indole-2-carboxylic acid formation at 2 uM for 60 mins by LC/MS analysis in presence of NADPH; assay type: ADME
[4] = tested on: Liver cytosol; assay: Drug metabolism in human liver cytosol assessed as (R)-4-fluoro-5-(6-(2-hydroxypropoxy)-5-methylpyrrolo[1,2-f][1,2,4]triazin-4-yloxy)-1H-indole-2-carboxylic acid formation at 2 uM for 60 mins by LC/MS analysis; assay type: ADME, tissue-based
[5] = tested on: Liver cytosol; assay: Drug metabolism in human liver cytosol assessed as (R)-1-(4-(4-fluoro-2-(hydroxymethyl)-1H-indol-5-yloxy)-5-methylpyrrolo[1,2-f][1,2,4]triazin-6-yloxy)propane-2-sulfonic acid formation at 2 uM for 60 mins by LC/MS analysis in presence of PAPS; assay type: ADME
[6] = tested on: Liver cytosol; assay: Drug metabolism in human liver cytosol assessed as (R)-4-fluoro-5-(5-methyl-6-(2-sulfopropoxy)pyrrolo[1,2-f][1,2,4]triazin-4-yloxy)-1H-indole-2-carboxylic acid formation at 2 uM for 60 mins by LC/MS analysis in presence of PAPS; assay type: ADME
[7] = tested on: Liver cytosol; assay: Drug metabolism in human liver cytosol assessed as sulfate conjugate formation at 2 uM for 60 mins in absence of PAPS by LC/MS analysis; assay type: ADME, tissue-based; settings: 1 h
[8] = tested on: Liver microsome; assay: Drug metabolism in human liver microsomes assessed as 1-(4-(4-fluoro-2-methyl-1H-indol-5-yloxy)-5-methylpyrrolo[1,2-f][1,2,4]triazin-6-yloxy)propan-2-one formation at 2 uM for 60 mins by LC/MS analysis; assay type: ADME
[9] = tested on: Liver microsome; assay: Drug metabolism in human liver microsomes assessed as (R)-1-(4-(4-fluoro-2-(hydroxymethyl)-1H-indol-5-yloxy)-5-methylpyrrolo[1,2-f][1,2,4]triazin-6-yloxy)propan-2-ol formation at 2 uM for 60 mins by LC/MS analysis in presence of NADPH; assay type: ADME
[10] = tested on: Liver microsome; assay: Drug metabolism in human liver microsomes assessed as 1-(4-(4-fluoro-2-methyl-1H-indol-5-yloxy)-5-methylpyrrolo[1,2-f][1,2,4]triazin-6-yloxy)propan-2-one formation at 2 uM for 60 mins by LC/MS analysis in presence of NADPH; assay type: ADME
[11] = tested on: Liver microsome; assay: Drug metabolism in human liver microsomes assessed as brivanib formation at 2 uM for 60 mins by LC/MS analysis; assay type: ADME; settings: 1 h
[12] = tested on: Liver microsome; assay: Drug metabolism in human liver microsomes assessed as brivanib formation at 2 uM for 60 mins by LC/MS analysis in presence of NADPH; assay type: ADME; settings: 1 h
[13] = tested on: Liver microsome; assay: Drug metabolism in human liver microsomes assessed as (R)-1-(4-(4-fluoro-2-(hydroxymethyl)-1H-indol-5-yloxy)-5-methylpyrrolo[1,2-f][1,2,4]triazin-6-yloxy)propan-2-ol formation at 2 uM for 60 mins by LC/MS analysis; assay type: ADME
[14] = tested on: Liver cytosol; assay: Drug metabolism in human liver cytosol assessed as (R)-1-(4-(4-fluoro-2-methyl-1H-indol-5-yloxy)-5-methylpyrrolo[1,2-f][1,2,4]triazin-6-yloxy)propane-2-sulfonic acid formation at 2 uM for 2 hrs by LC/MS analysis in presence of PAPS; assay type: ADME
[15] = tested on: Liver cytosol; assay: Drug level in human liver cytosol treated with 2 uM [14C]brivanib alaninate for 2 hrs by LC/MS analysis in presence of PAPS; assay type: ADME, tissue-based
[16] = target: Sulfotransferase 1A1 (Homo sapiens, UniProt P50225); assay: Activity of human SULT1A1 assessed as compound formation treated with 2 and 20 uM brivanib for 30 mins by LC/MS analysis in presence of PAPS; assay type: ADME; settings: 0.5 h
[17] = target: Sulfotransferase 1A3 (Homo sapiens, UniProt P0DMM9); assay: Activity of human SULT1A3 assessed as compound formation treated with 2 and 20 uM brivanib for 30 mins by LC/MS analysis in presence of PAPS; assay type: ADME; settings: 0.5 h
[18] = target: Sulfotransferase 2A1 (Homo sapiens, UniProt Q06520); assay: Activity of human SULT2A1 assessed as compound formation treated with 2 and 20 uM brivanib for 30 mins by LC/MS analysis in presence of PAPS; assay type: ADME; settings: 0.5 h
[19] = target: Sulfotransferase 1B1 (Homo sapiens, UniProt O43704); assay: Activity of human SULT1B1 assessed as compound formation treated with 2 and 20 uM brivanib for 30 mins by LC/MS analysis in presence of PAPS; assay type: ADME; settings: 0.5 h
[20] = target: Sulfotransferase 1E1 (Homo sapiens, UniProt P49888); assay: Activity of human SULT1E1 assessed as compound formation treated with 2 and 20 uM brivanib for 30 mins by LC/MS analysis in presence of PAPS; assay type: ADME; settings: 0.5 h
Chain of Sulfotransferase 1E1 (P49888 whole entry): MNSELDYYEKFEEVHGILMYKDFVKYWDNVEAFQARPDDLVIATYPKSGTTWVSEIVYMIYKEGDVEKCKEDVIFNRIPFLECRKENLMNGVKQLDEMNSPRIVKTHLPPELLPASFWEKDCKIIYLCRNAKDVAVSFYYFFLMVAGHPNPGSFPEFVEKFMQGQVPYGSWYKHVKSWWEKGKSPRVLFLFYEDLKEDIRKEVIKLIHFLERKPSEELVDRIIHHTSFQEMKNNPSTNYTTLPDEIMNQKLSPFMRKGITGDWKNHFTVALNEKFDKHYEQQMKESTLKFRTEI

Chain of Sulfotransferase 1A1 (P50225 whole entry): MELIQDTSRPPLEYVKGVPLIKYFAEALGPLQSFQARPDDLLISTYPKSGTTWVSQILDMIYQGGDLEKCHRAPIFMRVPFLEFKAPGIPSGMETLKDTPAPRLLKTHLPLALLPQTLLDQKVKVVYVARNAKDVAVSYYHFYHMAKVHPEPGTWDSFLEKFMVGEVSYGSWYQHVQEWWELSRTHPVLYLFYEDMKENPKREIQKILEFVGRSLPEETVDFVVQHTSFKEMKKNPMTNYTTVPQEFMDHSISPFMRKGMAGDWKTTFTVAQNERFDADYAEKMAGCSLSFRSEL
Chain of Sulfotransferase 1A3 (P0DMM9 whole entry): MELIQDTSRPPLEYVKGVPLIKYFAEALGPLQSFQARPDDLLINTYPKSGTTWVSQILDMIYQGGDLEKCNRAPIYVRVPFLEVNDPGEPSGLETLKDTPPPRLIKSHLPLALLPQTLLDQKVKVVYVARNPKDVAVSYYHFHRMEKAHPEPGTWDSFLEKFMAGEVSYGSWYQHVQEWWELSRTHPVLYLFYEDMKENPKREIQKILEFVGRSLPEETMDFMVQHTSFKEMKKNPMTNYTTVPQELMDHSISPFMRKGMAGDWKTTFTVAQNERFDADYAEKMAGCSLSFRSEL
Chain of Sulfotransferase 2A1 (Q06520 whole entry): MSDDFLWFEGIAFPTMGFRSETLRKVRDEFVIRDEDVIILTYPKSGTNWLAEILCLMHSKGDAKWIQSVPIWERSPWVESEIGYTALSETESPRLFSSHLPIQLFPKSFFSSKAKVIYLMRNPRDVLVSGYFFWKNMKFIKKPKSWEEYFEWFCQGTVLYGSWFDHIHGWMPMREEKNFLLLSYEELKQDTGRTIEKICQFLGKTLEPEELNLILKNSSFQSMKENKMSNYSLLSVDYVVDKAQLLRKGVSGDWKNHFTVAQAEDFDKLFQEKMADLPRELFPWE
Chain of Sulfotransferase 1B1 (O43704 whole entry): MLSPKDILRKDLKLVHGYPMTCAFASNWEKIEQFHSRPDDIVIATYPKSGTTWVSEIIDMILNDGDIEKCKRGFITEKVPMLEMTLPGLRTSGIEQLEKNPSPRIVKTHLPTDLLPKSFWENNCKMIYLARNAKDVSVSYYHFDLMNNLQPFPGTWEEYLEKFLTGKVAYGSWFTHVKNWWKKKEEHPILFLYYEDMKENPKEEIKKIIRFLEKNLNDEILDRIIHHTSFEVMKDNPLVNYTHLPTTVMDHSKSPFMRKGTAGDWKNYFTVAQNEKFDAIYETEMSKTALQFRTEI

Drug metabolism [1] | Drug metabolism [2] | Drug metabolism [3] | Drug metabolism [4] | Drug metabolism [5] | Drug metabolism [6] | Drug metabolism [7] | Drug metabolism [8] | Drug metabolism [9] | Drug metabolism [10] | Drug metabolism [11] | Drug metabolism [12] | Drug metabolism [13] | Drug metabolism [14] | Drug metabolism [15] | Drug metabolism [16] | Drug metabolism [17] | Drug metabolism [18] | Drug metabolism [19] | Drug metabolism [20] | Structure (SMILES)
metabolite_not_detected | metabolite_detected | metabolite_detected | metabolite_detected | metabolite_detected | metabolite_detected | metabolite_not_detected | – | – | – | – | – | – | – | – | – | – | – | – | – | Cc1c(OC[C@@H](C)O)cn2n[14cH]nc(Oc3ccc4[nH]c(CO)cc4c3F)c12
metabolite_not_detected | metabolite_detected | – | – | – | – | – | metabolite_not_detected | metabolite_detected | metabolite_detected | metabolite_detected | metabolite_detected | metabolite_not_detected | metabolite_detected | – | – | – | – | – | – | Cc1cc2c(F)c(Oc3n[14cH]nn4cc(OC[C@@H](C)OC(=O)[C@H](C)N)c(C)c34)ccc2[nH]1
– | – | – | – | – | – | – | – | – | – | – | – | – | – | metabolite_detected | metabolite_detected | metabolite_detected | metabolite_detected | metabolite_detected | metabolite_detected | Cc1cc2c(F)c(Oc3ncnn4cc(OC[C@@H](C)OS(=O)(=O)O)c(C)c34)ccc2[nH]1
